Source: patent publication US20040258772A1, “Methods of treating angiogenesis, tumor growth, and metastasis” (priority 2002, published 2004)
Entries after “also recorded” stand apart in the source; their conditions may differ.

Tests used:
[1] = test system: p21, p27, PCNA, Cdc25b, cyclin D1 in A549 cells; assay: Immunoblot of growth/cell cycle proteins; type: cell-based, human
Description: Immunoblotting was performed to investigate protein expression by standard methods known in the art. Antibodies were purchased from Santa Cruz, StressGen and Cell Signaling.
To investigate CO-induced changes in the expression of various growth/cell cycle proteins in cancer cells, A549 cells were exposed for 24 hours to air or CO (250 ppm). After this period of exposure, cell lysates were collected from the cells and changes in protein expression in the lysates were examined by immunoblot.

[2] = test system: VEGF production by A549 cells; assay: VEGF production by ELISA; type: cell-based, human; conditions: CO plus air for 24 to 48 hours vs air alone
Description: ELISA kits for VEGF levels were purchased from R&D Systems and used according to the manufacturer's directions.
Whether CO inhibits production of VEGF, a growth factor that contributes to angiogenesis by promoting blood vessel growth, was investigated. A549 cells were exposed to air or CO plus air for 24 to 48 hours in vitro, and VEGF production by A549 cells was detected using an enzyme-linked immunosorbent assay (ELISA).

[3] = test system: mouse mesothelioma cells (AC29); assay: Growth curves of cancer cells in culture exposed to CO; type: cell-based
Text: (§1) A human adenocarcinoma cell line designated A549, a murine mesothelioma cell line designated AC29, and a human colon cancer cell line designated HCT were utilized for the studies described herein.
(§2) Cell cultures and mice were exposed to CO at a concentration of 250 ppm. Briefly, 1% CO in air was mixed with air (21% oxygen) in a stainless steel mixing cylinder and then directed into a 3.70 ft^3 glass exposure chamber at a flow rate of 12 L/min. A CO analyzer (Interscan, Chatsworth, Calif.) was used to measure CO levels continuously in the chamber. CO concentrations were maintained at 250 ppm at all times. Cell cultures and mice were placed in the exposure chamber as required.
For [^3H] thymidine incorporation studies, cells were serum-starved overnight and then stimulated with 20% serum containing 5 mCi/ml [^3H] thymidine (New England Nuclear, Boston, Mass.). [^3H] thymidine incorporation was measured by scintillation spectroscopy. CO inhibits the growth of cancer cells in vitro Human and mouse cancer cell lines were used to investigate the effect of CO on growth rates of the cells in culture. Human adenocarcinoma cells (A549), mouse mesothelioma cells (AC29), and A549 and AC29 cells transformed with the heme oxygenase-1 (HO-1) gene (which causes the cells to overexpress HO-1) were exposed to low levels of CO (250 ppm) in culture. […]

A549 cells [4] = assay: [3H] thymidine uptake, cGMP dependence of CO-induced growth arrest; type: cell-based, human; conditions: CO 250 ppm 3 hours before and 24 hours after serum; compared to CO alone
Description: (§3) For [^3H] thymidine incorporation studies, cells were serum-starved overnight and then stimulated with 20% serum containing 5 mCi/ml [^3H] thymidine (New England Nuclear, Boston, Mass.). [^3H] thymidine incorporation was measured by scintillation spectroscopy. CO inhibits the growth of cancer cells in vitro Human and mouse cancer cell lines were used to investigate the effect of CO on growth rates of the cells in culture. Human adenocarcinoma cells (A549), mouse mesothelioma cells (AC29), and A549 and AC29 cells transformed with the heme oxygenase-1 (HO-1) gene (which causes the cells to overexpress HO-1) were exposed to low levels of CO (250 ppm) in culture. Four-day growth curves were generated.
The cellular mechanisms by which CO causes inhibition were also investigated. To investigate whether CO-induced growth arrest is CGMP dependant, A549 cells were exposed to air, CO, CO+ODQ, or CO+Rp-8-BR. […] The ability of the cells to proliferate was determined by measuring the uptake of [3H] thymidine by the cells (FIG. 5). Cells were exposed to CO (250 ppm) for 3 hours prior to the addition of serum and [3H] thymidine (5 mCi/ml). After the addition of serum and [3H] thymidine, cells were maintained in CO for 24 hours. Cells were then rinsed, fixed and examined by scintillation spectroscopy.

HTC cells = assay: [3H] thymidine uptake in wild-type and p21-deficient colon cancer cells; type: cell-based, human; conditions: p21-/- HTC cells versus wild type
Description: as §3
Wild-type (Wt) HTC cells and HTC cells deficient in p21 (p21−/−), a gene known to control cell growth, were exposed to air or CO to determine whether p21 is involved in CO-induced growth arrest (FIG. 6). As indicated by [^3H] thymidine uptake, CO-induced growth arrest appears less marked in HTC cells that are deficient in p21.

[5] = test system: Human adenocarcinoma cells (A549); type: cell-based; conditions: 250 ppm CO
Text: as §1, §2, §3

AC29 cells = assay: Mesothelioma (AC29) survival model, cells injected intraperitoneally; type: in vivo, CBA mice
Text: (§4) For human tumor studies, female SCID mice (weighing 20 to 30 g) were purchased from Taconic (White Plains, N.Y.) and allowed to acclimate for 1 week prior to experimentation. For murine tumor and matrigel studies, male CBA and C57B1/6 mice (weighing 25 to 30 g) were purchased form Jackson Labs (Bar Harbor, Me.) and also were allowed to acclimate for 1 week prior to experimentation.
as §2
The first was a mesothelioma (AC29) model, wherein CBA mice were injected with 1×10^6 AC29 cells intraperitoneally and monitored for survival when continuously exposed to air or to an atmosphere containing 250 ppm CO for a period of six weeks. […] The survival rate of the CO-exposed mice was increased by greater than 90% as compared to air-exposed mice. The arrow shown in FIG. 3 denotes a time point at which half of the CO-exposed mice were removed from the CO chamber. Half of the mice were removed at that time to determine whether the effects of CO on mouse survival require continuous exposure to CO. A significant number of mice (50%, p<0.02) that were removed from the CO-containing atmosphere remained alive at the end of the experiment, whereas all air treated mice died by day 36. The number of mice in each group was 12 to 20 animals.
In another experiment, it was shown that CO-exposed mice survived for greater than 65 days (data not shown).

angiogenesis = assay: Matrigel angiogenesis assay, FGF/heparin Matrigel implanted under the skin; type: in vivo, C57/B16 mice
Text: as §4, §2
The effect of CO (250 ppm) on angiogenesis was investigated using a Matri gel […] angiogenesis assay. A solubilized basement membrane matrix (Matrigel™) containing 20 ng/ml growth factor (FGF) and heparin was implanted under the skin of C57/B16 mice. The mice were then exposed to air or CO in air for two weeks. After the two-week period, the Matrigel™ was removed and examined.
In a separate experiment, Matrigel™ deposits containing 20 ng/ml growth factor (FGF) and heparin were implanted under the skin of C57/B16 mice, and the mice were exposed to air or CO (250 ppm) in air for 21 days. Photomicrographs of hematoxylin- and eosin-stained paraffin sections from the resected subcutaneous FGF-Matrigel deposits were prepared. Prominent angiogenesis was evident in deposits from air-exposed mice, as was a front of infiltrating vascular cells organizing into blood filled micro-capillaries (data not shown).

A549 cells [6] = assay: Adenocarcinoma (A549) subcutaneous tumor model; type: in vivo, SCID mice
Text: as §4, §2
The second model was an adenocarcinoma (A549) model, wherein SCID mice were injected with 1×10^6 A549 cells subcutaneously. These animals were continuously exposed to air or to 250 ppm of CO for a period of six weeks. After the six-week period, the volume of the tumors that developed in the mice was evaluated.

[7] = test system: A549 cells transformed to overexpress HO-1; assay: A549 HO-1 overexpressing tumor model; type: in vivo, mice; conditions: 50 μmol/kg s.c., data not shown
Description: The third model was also an A549 model, wherein mice were injected with A549 cells transformed to overexpress HO-1 (HO-1 clones A5 and L1). After the six-week period, the size and volume of tumors that developed in the mice were evaluated. […] Using Western blot analysis, the relative decrease in volume was determined to correlate with a relative decrease in expression of cyclin D1, a protein involved in the regulation of cell growth (data not shown).

## [C-]#[O+] [CO, carbon monoxide]
[1]; 250 ppm CO for 24 hours
  expression of p21, p27, PCNA, Cdc25b and cyclin D1: causes changes in expression
[1]; CO for 4, 8 and 24 hours
  expression of p21: causes changes in expression
[2]
  VEGF production: substantially less VEGF; also recorded: inhibits
[3]; 250 ppm CO, by three days, compared to controls
  reduction in cell number: > 40%
[3]; cultures removed from CO at day 5
  proliferation after removal from CO-containing atmosphere: proliferate at a normal rate
[3]; six-day growth curve, CO vs air
  proliferation of AC29 cells: inhibits the proliferation
A549 cells [4]
  uptake of [3H] thymidine (proliferation): growth arrest
HTC cells
  CO-induced growth arrest ([3H] thymidine uptake): less marked
[5]; A549 and AC29 cultures, confluency eventually achieved
  toxicity as cause of reduced cell numbers: not due to toxicity
[5]; by three days, compared to controls
  reduction in cell number: > 40%
AC29 cells; 250 ppm CO, compared to air-exposed mice
  increase of survival rate: greater than 90%
AC29 cells; CO treatment delayed until one week after injection of mesothelioma cells
  survival: prolonged the lives; also recorded: prolongs survival
AC29 cells; another experiment, data not shown
  survival time: greater than 65 days
AC29 cells; continuous 250 ppm CO for six weeks vs air
  survival: lived longer; also recorded: prolongs survival
AC29 cells; half of CO-exposed mice removed from chamber, p<0.02, all air treated mice died by day 36
  mice removed from CO-containing atmosphere alive at end of experiment: 50%
angiogenesis; 250 ppm CO in air for 21 days
  cellularity and blood in Matrigel deposits: paucity of cellularity and blood
angiogenesis; 250 ppm CO in air for 21 days, H&E sections
  angiogenesis in Matrigel deposits: No angiogenesis was evident
angiogenesis; 250 ppm CO in air for two weeks, data not shown
  angiogenesis in Matrigel: no new blood vessel growth
A549 cells [6]; CO plus air vs air alone
  tumor volume: reduced
A549 cells [6]; continuous 250 ppm CO for six weeks, compared to air-exposed mice
  reduction of tumor volume: greater than 50%

## C=Cc1c2[n-]c(c1C)/C=c1\[n-]/c(c(C)c1C=C)=C\c1[n-]c(c(CCC(=O)O)c1C)/C=c1\[n-]c(c(C)c1CCC(=O)O)=C2.[Sn+4] [tin protoporphyrin]
[7]
  effect on the inhibition of tumor growth by HO-1 overexpression: reversible
